Test results from US9034398B2, “Traditional Chinese drug comprising Danshen extracts and Sanqi extracts and use thereof” (TASLY Pharmaceutical Group Co., LTD., priority 2009, dated 2015).

Test system: rat myocardial I/R model
Assay: Diameters of the venules of heart coronary vessels after myocardial I/R
Assay type: in vivo
Settings: 5 mg/kg BW/h intravenous drip; entire observation; FIG. 1
Procedure: The rats were anesthetized by intramuscularly injecting 20 wt % urethane (1.25 g/kg) and fixed in the supine position. Neck skin was incised and anterior cervical muscles were separated to expose the trachea. Tracheal intubation was performed. Another end of the intubation was attached to a Small Animal Ventilator (ALC-V8, Shanghai Aoteshai Biology Science and Technology Limited Company, Shanghai, China) so as to carry out pressure breathing under the following conditions: a respiratory ratio of 1:1, a respiratory frequency of 75 times/min and a tidal volume of 12 mL/kg. The rectal temperature, measured with YSI REF 401 (Yellow Spring, Ohio, USA), was maintained at 37 37.5° C. by using a thermal blanket. […] Heart coronary vessel microcirculation had been recorded by a CD video recorder ([…], US). […] The diameter of the venules and RBC velocity under a same visual field were recorded before ischemia, 30 min after ischemia, 30 min after reperfusion and 60 min after reperfusion. Recordings were replayed at 25 frames·s^-1, diameters of the arterioles and the venules as well as RBC velocities were measured with Image-Pro Plus 5.0 software. RBC velocities in the rat's heart arterioles and venules were expressed as “mm/s”, and the diameters of the rat's heart arterioles and venules were expressed as “μm”.

| Structure (SMILES) | change in the diameters of the venules of the heart coronary vessels |
| --- | --- |
| O=C(O)C(O)Cc1ccc(O)c(O)c1 (centres unmarked) [Danshensu, (3,4-dihydroxyphenyl)lactic acid] | no significant change |
| CC(C)=CCC[C@](C)(O[C@@H]1O[C@H](CO)[C@@H](O)[C@H](O)[C@H]1O)[C@H]1CC[C@]2(C)[C@@H]1[C@H](O)C[C@@H]1[C@@]3(C)CC[C@H](O)C(C)(C)[C@@H]3[C@@H](O[C@@H]3O[C@H](CO)[C@@H](O)[C@H](O)[C@H]3O[C@@H]3OC[C@@H](O)[C@H](O)[C@H]3O)C[C@]12C [Notoginsenoside R1] | no significant change |
